Marks after values point to notes of the source that are not given here.
Legend:
PAI-1 [1] = molecular target: T1, PAI-1 (Homo sapiens, UniProt P05121); assay: PAI-1 Inhibitory Activity Assay (Reference Test Example 1 (1)); type: biochemical; conditions: 35 μM and 50 μM; FIG. 14
T1 construct: purchased Molecular Innovations Inc., USA (PAI-1); American Diagnostica, Inc., USA (t-PA)
Method: The compounds a and b (test compounds) were evaluated for inhibitory action on human PAI-1 (product of Molecular Innovations Inc., USA, hereinafter referred to the same). More specifically, human PAI-1 was added to a 0.1% Tween 80-containing 100 mM Tris-HCl (pH 8) solution each containing the above compound respectively in a given concentration (20, 35, 50 and 100 μM), and incubated at 37° C. for 15 minutes. Subsequently, added thereto was human tissue plasminogen activator (t-PA) (product of American Diagnostica, Inc., USA, hereinafter referred to the same), adjusted to […], and further incubated at 37° C. for 15 minutes. Then, 1.25 mM of S-2288 synthesized substrate (product of Chromogenix, Italy, hereinafter referred to as the same), a chromogenic substrate, was added thereto. The final mixed solution contained 100 mM Tris-HCl (pH 8), 30 mM NaCl, 1% DMSO, 0.1% Tween […], 9.8 nM t-PA, 1 mM S-2288 and the test compound a or b (20, 35, 50 or 100 μM).
Free radical p-nitroanilide removed from the chromogenic substrate (S-2288) by t-PA action was measured using a spectrophotometer at an absorbance of 405 nm, every 5 minutes, for 30 minutes. […]

PAI-1 [2] = molecular target: T1, PAI-1; assay: Fibrinolytic Action Assay (fibrin plate, PAI-1 + t-PA + test compound); type: biochemical; conditions: mixture of PAI-1, t-PA and test compound, 18 hours at room temperature
Method: The compounds a and b were evaluated for fibrinolytic action in accordance with the method disclosed in the document (Matsuo, O. et al., Haemostasis 16, 43-50 (1986)).
More specifically, an aqueous solution (25 mM barbital sodium, 50 mM NaCl, and 25 mM CaCl2) containing a concentration of 1.5 mg/ml of fibrinogen (product of Organon Teknica) was added on a 9 cm-plate to thrombin (10NIH U/ml: product of Mochida Pharmaceutical Co., Ltd.) dissolved in a 0.2 ml physiological saline, and the mixture was allowed to stand for 2 hours at room temperature. Using this mixture, fibrinolysis assay was conducted.
Namely, a mixture of PAI-1, t-PA and a test compound were dropped onto the above-mentioned plate, and incubated for 18 hours at room temperature. Fibrinolysis due to the plasminogen activation was assayed in terms of the lysed area on the plate.

[3] = tested on: bleomycin-induced pulmonary fibrosis; assay: Effects on bleomycin-induced pulmonary fibrosis (mouse model); type: in vivo
Method: (§1) A C57BL/6 mouse (male, body weight 19 to 21 g) was intraperitoneally anesthetized with pentobarbital, and an incision was made on the cervical organ. Ten mice were used as controls. The control mice (n=10) were endotracheally administered with bleomycin (product of Nippon Kayaku Co., Ltd.) (1.5 U/kg), lysed in physiological saline, twice a day for 14 days. On the other hand, the test mice were subjected to forcible oral administration with the compound b (200 mg/kg), suspended in a 0.5% carboxymethyl cellulose aqueous solution, twice a day for 14 days, in addition to the above endotracheal administration. Then, the lung tissues taken from these control mice and the test mice were analyzed, and further assayed for hydroxyproline levels. The hydroxyproline levels in the lung tissues were assayed in terms of the level in the hydrolysate of the lung tissues as described in the method of Kivirikko et al (Anal. Biochem. 19, 249-255 (1967)). Pulmonary fibrosis levels (severity) were scored from 0 to 8, based on the method of Ashcort et al (J. Clin. Pathol. 41, 467-470, (1988)). Further, the control mice and test mice were assayed for plasma PAI-1 activity (ng/ml). The results of lung tissue analysis were shown in FIG. 15 (a represents fibrosis score and b is a set of histological stain images).

plasma PAI-1 = molecular target: T2, plasma PAI-1 (Mus musculus, UniProt P22777); assay: Plasma PAI-1 activity in mice with bleomycin-induced pulmonary fibrosis; type: in vivo
T2 construct: from tissue; host or cells: mouse plasma (C57BL/6, male)
T2 sequence (P22777 23-402): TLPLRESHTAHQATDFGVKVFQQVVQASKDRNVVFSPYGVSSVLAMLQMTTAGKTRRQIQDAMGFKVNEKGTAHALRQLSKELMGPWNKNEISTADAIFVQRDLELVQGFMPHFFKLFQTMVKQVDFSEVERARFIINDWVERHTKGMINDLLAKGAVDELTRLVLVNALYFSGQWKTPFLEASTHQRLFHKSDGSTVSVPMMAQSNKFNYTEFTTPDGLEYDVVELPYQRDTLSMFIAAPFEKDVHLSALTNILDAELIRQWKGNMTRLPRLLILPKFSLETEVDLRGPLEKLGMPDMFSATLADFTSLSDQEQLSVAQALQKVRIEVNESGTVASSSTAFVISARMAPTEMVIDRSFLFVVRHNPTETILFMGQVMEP
Method: as §1

[4] = C57BL/6 mice, bleomycin, 200 mg/kg p.o. twice/day for 14 days in 0.5% CMC, n=10, mean±SE
[5] = versus elevation by bleomycin, 200 mg/kg p.o. twice a day

T1 sequence (P05121 24-402): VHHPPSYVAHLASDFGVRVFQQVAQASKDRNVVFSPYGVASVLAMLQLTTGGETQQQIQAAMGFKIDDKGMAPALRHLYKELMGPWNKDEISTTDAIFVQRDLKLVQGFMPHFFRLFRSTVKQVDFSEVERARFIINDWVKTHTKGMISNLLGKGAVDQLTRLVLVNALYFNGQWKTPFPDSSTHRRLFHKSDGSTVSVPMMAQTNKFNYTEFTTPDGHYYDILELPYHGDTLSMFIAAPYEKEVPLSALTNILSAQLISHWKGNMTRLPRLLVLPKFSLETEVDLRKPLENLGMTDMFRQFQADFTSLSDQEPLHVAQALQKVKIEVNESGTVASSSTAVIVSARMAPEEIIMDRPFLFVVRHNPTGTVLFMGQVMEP

Plasma PAI-1 Activity (plasma PAI-1; [4])	plasma PAI-1 activity (in words) (plasma PAI-1; [5])	Compound	PAI-1 activity inhibitory action compared with tiplaxtinin (PAI-1 [1])	fibrinolysis (lysed area on the plate) (PAI-1 [2])	Hydroxyproline Level in Lung Tissue [3, 4]	fibrosis score ([3]; scored from 0 to 8 (Ashcroft), bleomycin mice, 200 mg/kg p.o. twice a day for 14 days, FIG. 15)	hydroxyproline level in the lung tissues (in words) [3, 5]
–	–	CCC(CC(=O)Nc1scc(-c2ccccc2)c1C(=O)O)C(=O)Nc1scc(-c2ccccc2)c1C(=O)O (stereo not drawn) [compound a, 2-[3-(3′-Carboxy-4′-phenylthiophen-2′-ylcarbamoyl)-pentanoylamino]-4-phenylthiophen-3-carboxylic acid]	higher PAI-1 activity inhibitory action at concentrations of 35 μM and 50 μM than tiplaxtinin	inhibit the fibrinolysis suppression caused by PAI-1	–	–	–
1.2 ± 0.1^b ng/ml	significantly decreases	CCC(CC(=O)Nc1scc(-c2cccs2)c1C(=O)O)C(=O)Nc1scc(-c2cccs2)c1C(=O)O (stereo not drawn) [compound b, 2-[3-(3′-carboxy-4′-thienylthiophen-2′-ylcarbamoyl)-pentanoylamino]-4-thienylthiophen-3-carboxylic acid]	higher PAI-1 activity inhibitory action at concentrations of 35 μM and 50 μM than tiplaxtinin	inhibit the fibrinolysis suppression caused by PAI-1	204.2 ± 9.5^b μg/lung	2.9±0.42	significantly decreases

From US7951806B2, “Plasminogen activator inhibitor-1 inhibitor” (Renascience Co., Ltd., priority 2007, dated 2011)
